In patent publication US10544143B2, “4-azaindole compounds” (BRISTOL-MYERS SQUIBB COMPANY, priority 2017, dated 2020):
Read-outs that look alike come from different tables or passages of the source.

Columns and labels:
human TLR7 = human TLR7 (Homo sapiens (Human), UniProt Q9NYK1); assay: TLR7 inhibition reporter assay (HEK-Blue SEAP); type: cell-based
human TLR8 = human TLR8 (Homo sapiens (Human), UniProt Q9NR97); assay: TLR8 inhibition reporter assay (HEK-Blue SEAP); settings: read-out: TLR8 IC50;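 further: SEAP driven by IFN-β minimal promoter carrying NF-κB and AP-1 sites, compounds dosed 0.05 nM to 50 µM for 22 h, inhibition scaled between agonist-plus-DMSO and reference-inhibitor wells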
Sequence of human TLR8 (Q9NR97 27-1041): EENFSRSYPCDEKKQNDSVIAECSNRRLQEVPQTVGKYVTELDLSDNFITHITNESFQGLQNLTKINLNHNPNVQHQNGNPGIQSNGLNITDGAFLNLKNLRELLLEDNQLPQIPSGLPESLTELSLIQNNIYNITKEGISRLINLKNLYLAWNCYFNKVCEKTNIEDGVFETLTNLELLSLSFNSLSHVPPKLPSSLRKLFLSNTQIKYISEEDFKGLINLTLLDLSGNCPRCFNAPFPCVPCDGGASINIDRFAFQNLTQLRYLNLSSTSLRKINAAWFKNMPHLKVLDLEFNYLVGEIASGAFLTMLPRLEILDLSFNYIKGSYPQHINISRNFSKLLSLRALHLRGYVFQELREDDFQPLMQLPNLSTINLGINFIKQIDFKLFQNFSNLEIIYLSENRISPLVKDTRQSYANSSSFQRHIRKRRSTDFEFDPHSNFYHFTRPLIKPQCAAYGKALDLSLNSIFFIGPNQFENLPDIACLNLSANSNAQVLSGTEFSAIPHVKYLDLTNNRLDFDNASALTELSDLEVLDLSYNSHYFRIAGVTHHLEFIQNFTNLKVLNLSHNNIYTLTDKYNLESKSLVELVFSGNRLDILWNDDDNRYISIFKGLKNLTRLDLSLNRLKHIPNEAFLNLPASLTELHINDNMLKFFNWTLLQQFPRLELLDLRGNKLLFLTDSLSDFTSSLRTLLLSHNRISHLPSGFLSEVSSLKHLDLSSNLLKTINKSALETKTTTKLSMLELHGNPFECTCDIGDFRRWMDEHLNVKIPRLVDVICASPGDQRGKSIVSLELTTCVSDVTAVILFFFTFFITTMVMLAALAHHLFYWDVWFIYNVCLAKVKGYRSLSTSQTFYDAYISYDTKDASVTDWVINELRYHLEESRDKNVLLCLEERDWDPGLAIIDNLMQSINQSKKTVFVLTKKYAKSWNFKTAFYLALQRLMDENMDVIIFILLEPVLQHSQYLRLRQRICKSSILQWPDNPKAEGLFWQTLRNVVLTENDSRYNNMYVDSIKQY

human TLR9 = human TLR9 (Homo sapiens (Human), UniProt Q9NR96); assay: TLR9 inhibition reporter assay (HEK-Blue SEAP); settings: read-out: TLR9 IC50;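 further: SEAP driven by an IFN-β minimal promoter with NF-κB and AP-1 sites, read after 22 h, compounds dosed 0.05 nM–50 µM, inhibition scaled between agonist plus DMSO and reference-inhibitor wells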
Sequence of human TLR9 (Q9NR96 26-1032): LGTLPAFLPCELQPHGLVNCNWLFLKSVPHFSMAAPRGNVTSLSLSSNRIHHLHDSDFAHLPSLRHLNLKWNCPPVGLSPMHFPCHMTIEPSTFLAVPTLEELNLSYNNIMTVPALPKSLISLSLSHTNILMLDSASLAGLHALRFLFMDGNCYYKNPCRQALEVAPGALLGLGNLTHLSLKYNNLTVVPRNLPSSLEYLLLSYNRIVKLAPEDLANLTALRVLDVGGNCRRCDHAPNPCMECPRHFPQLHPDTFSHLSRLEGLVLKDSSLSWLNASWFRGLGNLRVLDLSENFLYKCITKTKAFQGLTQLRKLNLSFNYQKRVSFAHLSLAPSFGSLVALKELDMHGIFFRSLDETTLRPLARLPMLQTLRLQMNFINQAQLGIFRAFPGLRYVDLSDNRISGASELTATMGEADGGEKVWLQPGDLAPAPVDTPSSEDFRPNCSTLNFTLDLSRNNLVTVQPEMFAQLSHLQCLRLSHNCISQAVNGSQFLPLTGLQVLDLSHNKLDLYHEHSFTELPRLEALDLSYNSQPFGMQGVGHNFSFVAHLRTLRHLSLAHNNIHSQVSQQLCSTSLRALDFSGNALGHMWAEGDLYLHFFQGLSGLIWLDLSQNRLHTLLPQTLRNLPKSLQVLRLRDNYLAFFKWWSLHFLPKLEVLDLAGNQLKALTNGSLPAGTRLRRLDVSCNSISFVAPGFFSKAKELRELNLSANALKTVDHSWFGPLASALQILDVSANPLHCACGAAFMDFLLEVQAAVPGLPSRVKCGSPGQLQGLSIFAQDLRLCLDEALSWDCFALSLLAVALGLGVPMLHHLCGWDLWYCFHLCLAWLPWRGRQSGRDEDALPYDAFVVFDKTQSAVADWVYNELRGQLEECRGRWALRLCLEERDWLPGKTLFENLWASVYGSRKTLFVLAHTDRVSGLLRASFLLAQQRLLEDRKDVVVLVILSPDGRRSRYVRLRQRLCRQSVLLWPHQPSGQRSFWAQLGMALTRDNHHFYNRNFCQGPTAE

[1] = HEK-Blue cells overexpressing human TLR7, SEAP reporter, gardiquimod 7.5 μM
[2] = HEK-Blue cells overexpressing human TLR8, SEAP reporter, R848 15.9 μM
[3] = HEK-Blue cells overexpressing human TLR9, SEAP reporter, ODN2006 5 nM
[4] = HEK-Blue human TLR7 cells, gardiquimod 7.5 μM
[5] = HEK-Blue human TLR8 cells, R848 15.9 μM
[6] = HEK-Blue human TLR9 cells, ODN2006 5 nM
[7] = HEK-Blue cells overexpressing human TLR7, gardiquimod 7.5 μM stimulation, SEAP reporter
[8] = HEK-Blue cells overexpressing human TLR8, R848 15.9 μM stimulation, SEAP reporter
[9] = HEK-Blue cells overexpressing human TLR9, ODN2006 5 nM stimulation, SEAP reporter

Sequence of human TLR7 (Q9NYK1 27-1049): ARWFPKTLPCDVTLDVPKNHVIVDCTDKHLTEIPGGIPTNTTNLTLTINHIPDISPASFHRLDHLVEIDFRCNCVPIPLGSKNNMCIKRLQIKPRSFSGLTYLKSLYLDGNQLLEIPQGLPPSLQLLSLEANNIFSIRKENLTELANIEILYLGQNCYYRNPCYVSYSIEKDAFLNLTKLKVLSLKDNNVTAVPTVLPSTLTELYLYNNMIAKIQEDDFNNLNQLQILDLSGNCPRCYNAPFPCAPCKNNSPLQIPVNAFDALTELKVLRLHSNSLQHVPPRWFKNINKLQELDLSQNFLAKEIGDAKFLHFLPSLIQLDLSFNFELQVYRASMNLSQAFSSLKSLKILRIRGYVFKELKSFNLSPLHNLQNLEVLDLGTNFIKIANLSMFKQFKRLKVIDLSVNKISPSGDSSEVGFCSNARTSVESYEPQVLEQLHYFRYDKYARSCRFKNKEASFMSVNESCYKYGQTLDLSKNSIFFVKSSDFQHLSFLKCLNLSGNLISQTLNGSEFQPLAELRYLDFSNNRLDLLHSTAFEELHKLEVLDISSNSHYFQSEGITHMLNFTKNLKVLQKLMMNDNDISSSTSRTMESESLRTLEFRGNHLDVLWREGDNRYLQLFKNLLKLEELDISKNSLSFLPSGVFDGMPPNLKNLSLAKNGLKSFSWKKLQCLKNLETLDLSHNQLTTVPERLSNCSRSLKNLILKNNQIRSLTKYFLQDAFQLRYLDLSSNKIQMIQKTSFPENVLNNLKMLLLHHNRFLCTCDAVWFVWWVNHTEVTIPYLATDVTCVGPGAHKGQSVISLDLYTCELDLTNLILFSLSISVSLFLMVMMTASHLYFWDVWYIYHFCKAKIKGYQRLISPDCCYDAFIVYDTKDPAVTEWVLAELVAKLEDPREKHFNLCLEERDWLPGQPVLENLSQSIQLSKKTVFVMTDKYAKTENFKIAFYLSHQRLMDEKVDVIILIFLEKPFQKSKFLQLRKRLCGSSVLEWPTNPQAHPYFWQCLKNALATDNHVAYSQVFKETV

SMILES | IC50 (human TLR7; [1]) [nM] | IC50 (human TLR8; [2]) [nM] | IC50 (human TLR9; [3]) [nM] | IC50 (human TLR7; [7]) [nM] | IC50 (human TLR8; [8]) [nM] | IC50 (human TLR9; [9]) [nM] | further results
Cc1c(-c2[nH]c3ccc(C4CCC(N(CCO)CC5(S(C)(=O)=O)CC5)CC4)nc3c2C(C)C)cn2ncnc2c1C (stereo not drawn) [Example 481] | 0.82 | 3.9 | 13000 |  |  |  | 
Cc1c(-c2[nH]c3ccc(C4CCC(N(C)CCS(C)(=O)=O)CC4)nc3c2C(C)C)cn2ncnc2c1C (stereo not drawn) [Example 425] | 0.87 | 0.5 | 2920 |  |  |  | 
Cc1c(-c2[nH]c3ccc(N4CCN(C(=O)CNC(C)C)C[C@@H]4C)nc3c2C(C)C)cn2ncnc2c1C [Example 827] |  |  |  |  |  |  | IC50 (human TLR7; [4]): 0.46 nM; IC50 (human TLR8; [5]): 0.34 nM; IC50 (human TLR9; [6]): 4850 nM
Cc1cc(-c2[nH]c3ccc(C4CCN(CC(=O)N(C)C)CC4)nc3c2C(C)C)cn(C)c1=O [Example 529] | 2.9 | 12 | 1830 |  |  |  | 
Cc1c(-c2[nH]c3ccc(N4CCC(N(C)Cc5ncccn5)CC4)nc3c2C(C)C)cn2ncnc2c1C [Example 78] |  |  |  | 3.7 | 10 | 3170 | 
Cc1c(-c2[nH]c3ccc(C4CCN(CC#N)CC4)nc3c2C(C)C)cn2ncnc2c1C [Example 557] | 0.66 | 1.2 | 440 |  |  |  | 
Cc1c(-c2[nH]c3ccc(N4C[C@@H](C)N(C(=O)CN5CC6(COC6)C5)C[C@@H]4C)nc3c2C(C)C)cn2ncnc2c1C [Example 896] |  |  |  |  |  |  | IC50 (human TLR7; [4]): 0.69 nM; IC50 (human TLR8; [5]): 0.37 nM; IC50 (human TLR9; [6]): 8440 nM
Cc1c(-c2[nH]c3ccc(C4CCC(N5CCC(F)C5)CC4)nc3c2C(C)C)cn2ncnc2c1C (stereo not drawn) [Example 1058] |  |  |  |  |  |  | IC50 (human TLR7; [4]): 1.9 nM; IC50 (human TLR8; [5]): 3.5 nM; IC50 (human TLR9; [6]): 5280 nM
Cc1c(-c2[nH]c3ccc(N4CCN(C(=O)CCN(C)C)[C@H](C)C4)nc3c2C(C)C)cn2ncnc2c1C [Example 850] |  |  |  |  |  |  | IC50 (human TLR7; [4]): 0.72 nM; IC50 (human TLR8; [5]): 1.6 nM; IC50 (human TLR9; [6]): 6540 nM
Cc1cc(-c2[nH]c3ccc(C4CCN(C(=O)CN(C)C)CC4)nc3c2C(C)C)cn(C)c1=O [Example 531] | 19 | 21 | 1290 |  |  |  | 
COc1cc(-c2[nH]c3ccc(C4CCC(N(CC#N)C5COC5)CC4)nc3c2C(C)C)cn2ncnc12 (stereo not drawn) [Example 277] |  |  |  | 0.4 | 1.6 | 1380 | 
Cc1c(-c2[nH]c3ccc(N4CCCNCC4)nc3c2C(C)C)cn2ncnc2c1C [Example 162] |  |  |  | 2.8 | 2.8 | 23100 | 
Cc1c(-c2[nH]c3ccc(C4CC(NCCS(C)(=O)=O)C4)nc3c2C(C)C)cn2ncnc2c1C (stereo not drawn) [Example 624] | 3 | 2 | 2570 |  |  |  | 
COc1cc(-c2[nH]c3ccc(CCN4CCCCC4)nc3c2C(C)C)cn2ncnc12 [Example 682] | 16 | 24 | 1050 |  |  |  | 
CNC1CCC(c2ccc3[nH]c(-c4cn(C)c5ncccc45)c(C(C)C)c3n2)CC1 (stereo not drawn) [Example 302] |  |  |  | 0.74 | 4.9 | 739 | 
Cc1c(-c2[nH]c3ccc(C4CCC(NCC5(C)COC5)CC4)nc3c2C(C)C)cn2ncnc2c1C (stereo not drawn) [Example 477] | 8.3 | 6 | 6160 |  |  |  | 
Cc1c(-c2[nH]c3ccc(C4CCC(N(C)CC5(S(C)(=O)=O)CC5)CC4)nc3c2C(C)C)cn2ncnc2c1C (stereo not drawn) [Example 479] | 2.9 | 10 | 23700 |  |  |  | 
COc1cc(-c2[nH]c3ccc(C4CCC(N(C)CC(=O)N(C)C)CC4)nc3c2C(C)C)cn2ncnc12 (stereo not drawn) [Example 211] |  |  |  | 1.1 | 6.8 | 585 | 
Cc1cc(-c2[nH]c3ccc(C4CCN(CC(C)(C)O)CC4)nc3c2C(C)C)cn2ncnc12 [Example 547] | 0.27 | 0.55 | 789 |  |  |  | 
Cc1c(-c2[nH]c3ccc(C4CCC(N5CCS(=O)(=O)CC5)CC4)nc3c2C(C)C)cn2ncnc2c1C (stereo not drawn) [Example 382] |  |  |  | 7.8 | 22 | > 50000 | 
COc1cc(-c2[nH]c3ccc(N4CC(NCC(=O)N(C)C)C4)nc3c2C(C)C)cn2ncnc12 [Example 18] |  |  |  | 14 | 14 | 1490 | 
